Data set [1] relates to CDM5 cells (β-tcTet cells). The data set can be described thus: Cell membrane potential measured with the bis-oxonol assay. It counts as cell-based. The protocol: In order to test the bioefficacy of GLP-1, which was believed to be secreted by β-1081 cells, the supernatant of the 1081 cells were kept for 4 hours in 25 mM KRBH. CDM5 cells (a type of β-cTCtet cell) were then stimulated with this supernatant. Next, the effect of this stimulation in cell membrane potential was measured using the bis-oxonol assay.
Those skilled in the art will recognize that GLP-1 has the effect of depolarizing the cell membrane upon application. This depolarization is the result of the stimulatory effect of GLP-1 on cAMP, which, as discussed above, leads to increased insulin secretion. The increased insulin secretion is the result of both the enhanced closing of ATP sensitive potassium (K^+ ATP) channels in the membrane of the β-cell as well as the protein kinase A activation of distal exocytotic events.
The cells were allowed to equilibrate in 8 mM glucose and 400 μM Diazoxide for 600 seconds. At 200, 400, 600, 800, and 1000 seconds, 1, 2, 4, 6, and 8 nM GLP-1-gly8, respectively, were added to the medium.
In this experiment, the cells were equilibrated at 8 mM glucose and 400 μM of diazoxide for 600 seconds. At t=100 seconds, 100 nM of Exendine-(9-39) was added. […] At t=600 seconds, 20 μl of water was added as a dilution control.
Again, the cells were allowed to equilibrate at 8 mM glucose and 400 μM Diazoxide for 600 seconds. At 200 seconds, 24 μl of the supernatant of the GLP-1 secreting 1081 cells were added to the cells. […] At 1500 seconds, 24 μl of the supernatant was added.
Exendine (9-39) is an inhibitor of GLP-1 activity. […] In this experiment, the equilibration period lasted from time […]. At t=200 seconds, […] of Exendine (9-39) was added to the cells.

For data set [2], the system named is diabetic mice implanted with encapsulated CDM3D cells. The data set can be described thus: In vivo evaluation of GLP-1-gly8 injected intraperitoneally in diabetic mice implanted with encapsulated CDM3D cells. The text has this: The effect observed in the control group can probably be attributed to the few remaining islets (β-cells) in the pancreas of the mice that remain functional following streptozocin treatment.

For data set [3] the following is noted: comparison of GLP-1-gly8 and wild type GLP-1; cited from earlier work.

As to `CC1=NS(=O)(=O)c2cc(Cl)ccc2N1` [Diazoxide], the membrane potential entry is given as “maximum hyperpolarization” in data set [1] (8 mM glucose and 400 μM Diazoxide, 2×10^6 cells, FIG. 6); “maximum depolarization” in data set [1] (400 μm Diazoxide at t=2800 s, FIG. 2).

Regarding “GLP-1-gly8: commercial GLP-1-gly8, given rather than wild-type GLP-1; half-life longer than wild type GLP-1 (HDEFERHGEGTFTSDVSSYLEGQAAKEFIAWLVKGRG; Glucagon-like peptide 1; UniProt P01275 92-128, looked up, variant A8G)”, the “glycemia after injection, test group” value in data set [2] (0.1 nmol IP at t=0, streptozocin-diabetic mice implanted IP with encapsulated CDM3D cells, first two hours, FIG. 1) is “large decrease in glycemia”. In data set [2] (0.1 nmol IP at t=0, streptozocin-diabetic non-implanted mice, FIG. 1), the “glycemia after injection, control group” value is “smaller (and shorter decrease) in glycemia”. Moreover, in data set [2] (0.1 nmol IP, implanted diabetic mice), the “loss of the effect on glycemia in the test group” value came to 120 min. The membrane potential entry in data set [1] (8 nM GLP-1-gly8, cells in 8 mM glucose and 400 μM Diazoxide, FIG. 3) is given as “saturation of the effect”; in data set [1] (1, 2, 4, 6 nM GLP-1-gly8, cells in 8 mM glucose and 400 μM Diazoxide, FIG. 3) it was “depolarization of the cell membrane”; in data set [1] (GLP-1-gly8 after exposure of the cells to Exendine-(9-39), FIG. 4), “no response was observed”. Further, the half-life entry in data set [3] was “longer than the half-life of wild type GLP-1”.
